The values that follow come from ChEMBL document CHEMBL3407452, “Linear and branched alkyl-esters and amides of gallic acid and other (mono-, di- and tri-) hydroxy benzoyl derivatives as promising anti-HCV inhibitors” (Eur J Med Chem, 2015).

Activity calls are given as the source filed them. The rule behind the calls is not given here.

Broadly, the CC50 is the concentration giving 50% cytotoxicity. A word on the EC50: it is the concentration that produces a half-maximal response. By EC90 is commonly meant the point of the concentration-response curve where the effect stands at 90%.

For one data set, the system named is Influenza A virus H3N2. Nature of the data set: Antiviral activity against influenza A virus H3N2. It is filed as functional, organism-based.
The next data set relates to Influenza A virus. The experiment in a line: Antiviral activity against influenza A virus (H1N1). It is filed as functional, organism-based.
For data set [1], the system named is Vesicular stomatitis virus. Nature of the data set: Antiviral activity against vesicular stomatitis virus. It is filed as functional, organism-based.
In a further data set the test system is Coxsackievirus B4. Nature of the data set: Antiviral activity against human coxsackievirus B4. It is filed as functional, organism-based.
For the next data set, the system named is Reovirus sp. Nature of the data set: Antiviral activity against reovirus. It is filed as functional, organism-based.
In another data set the test system is Human respirovirus 3. Nature of the data set: Antiviral activity against human parainfluenza virus 3. It is filed as functional, organism-based.
In another data set the test system is Feline coronavirus. Nature of the data set: Antiviral activity against feline coronavirus. It is filed as functional, organism-based.
For data set [2], the system named is Respiratory syncytial virus. Nature of the data set: Antiviral activity against RSV. It is filed as functional, organism-based.
The test system of the next data set is Sindbis virus. Nature of the data set: Antiviral activity against sindbis virus. It is filed as functional, organism-based.
The nature of data set [3]: Cytotoxicity against human CEM cells assessed as inhibition of cell proliferation. It is filed as cell-based. As to conditions: CEM cells (CCRF-CEM).
The subject of the next data set is Punta Toro virus. Nature of the data set: Antiviral activity against punta toro virus. It is filed as functional, organism-based.
The test system of data set [4] is Human immunodeficiency virus 2. The experiment in a line: Antiviral activity against HIV2 ROD infected in human CEM cells assessed as reduction in virus-induced cytopathicity after 4 to 5 days by microscopy based syncytium cell formation assay. Conditions: Human immunodeficiency virus 2, ISOLATE ROD, CCRF-CEM; read-out: EC50. It is filed as functional, organism-based, ISOLATE ROD, CCRF-CEM. For orientation: Protection from cytopathic effect is a common read-out in antiviral testing.

Data set [5] deals with Human immunodeficiency virus 1. The experiment in a line: Antiviral activity against HIV1 3B infected in human CEM cells assessed as reduction in virus-induced cytopathicity after 4 to 5 days by microscopy based syncytium cell formation assay. As to conditions: Human immunodeficiency virus 1, 3B, CCRF-CEM; read-out: EC50. It is filed as functional, organism-based, CCRF-CEM.

Data set [6] is described as follows: Cytotoxicity against human Huh5-2 cells after 72 hrs by MTS assay. It is filed as cell-based, Huh-5-2. For orientation: Tetrazolium dyes change colour on reduction, which living cells bring about.
The test system of the next data set is Felid alphaherpesvirus 1. The experiment in a line: Antiviral activity against feline herpesvirus. It is filed as functional, organism-based.
Another data set has as its system Hepatitis C virus. Nature of the data set: Antiviral activity against HCV genotype 1b I389luc-ubi-neo/NS3-3'/5.1 replicons infected in human Huh5-2 HCV subgenomic replicon-containing cells assessed as reduction in virus replication after 3 days by luciferase reporter gene assay. It is filed as functional, Hepacivirus hominis. Conditions: Hepatitis C virus, genotype 1b, Huh-5-2, 72 h; for EC50: read-out: EC50. Background: A replicon is a self-replicating genome or part of one, used to study replication in cells.

In another data set the test system is Vaccinia virus. Nature of the data set: Antiviral activity against vaccinia virus. It is filed as functional, organism-based. As to conditions: Orthopoxvirus vaccinia.
In the next data set the test system is Chikungunya virus. Nature of the data set: Antiviral activity against chikungunya virus. It is filed as functional.

Regarding `O=C(NCCCCCCCCCCCCNC(=O)c1cc(O)c(O)c(O)c1)c1cc(O)c(O)c(O)c1`, the outcome (with Influenza A virus H3N2; with Influenza A virus; in data set [1]; in the data set on Coxsackievirus B4; in the data set on Reovirus sp.; in the data set with Human respirovirus 3) was inactive. Moreover, the result (in the data set with Feline coronavirus; in [2]; in the data set with Sindbis virus; in the data set on Punta Toro virus; with Felid alphaherpesvirus 1; with Vaccinia virus) was inactive. Also, in the data set on Chikungunya virus, the outcome was inactive. Further, the half-maximal cytotoxic concentration (CC50) in [3] turned out to be 58 µM. Further, the concentration for a half-maximal effect (EC50) amounted to 26 µM in data set [4], 19 µM in [5] and 27 µM in the data set on Hepatitis C virus. Also, the CC50 at 72 h in data set [6] is more than 100 µM. In addition, the 90% effect concentration (EC90) in the data set with Hepatitis C virus was more than 100 µM.

On to `O=C(NCCCCCCNC(=O)c1cc(O)c(O)c(O)c1)c1cc(O)c(O)c(O)c1`, for which the outcome (in the data set on Influenza A virus H3N2; in the data set with Influenza A virus; in data set [1]; in the data set with Coxsackievirus B4; in the data set on Reovirus sp.; with Human respirovirus 3) was inactive. The result (in the data set on Feline coronavirus; in [2]; with Sindbis virus; in the data set on Punta Toro virus; in the data set on Felid alphaherpesvirus 1; with Vaccinia virus) was inactive. The outcome with Chikungunya virus was inactive. In addition, the half-maximal cytotoxic concentration (CC50) in data set [3] was found to be 72 µM. For the same compound, the EC50 in [4] is more than 10 µM; in [5] it was more than 10 µM; in the data set with Hepatitis C virus it was 11 µM. This compound also came in with a CC50 at 72 h in data set [6] of 24 µM. Moreover, the 90% effect concentration (EC90) with Hepatitis C virus was more than 24 µM.

In the case of `O=C(O)c1cc(O)c(O)c(O)c1` [GALLIC ACID], the outcome (in the data set on Influenza A virus H3N2; in the data set on Influenza A virus; in data set [1]; in the data set with Coxsackievirus B4; with Reovirus sp.; in the data set on Human respirovirus 3) was inactive. For the same compound, the result (with Feline coronavirus; in data set [2]; with Sindbis virus; in the data set with Punta Toro virus; in the data set with Felid alphaherpesvirus 1; in the data set with Vaccinia virus) was inactive. Moreover, the result with Chikungunya virus was inactive. Besides, in [3], the half-maximal cytotoxic concentration (CC50) is more than 250 µM. Moreover, the EC50 in data set [4] and in data set [5] was more than 50 µM throughout.

Regarding `O=C(NCCCCCCCCCCCCNC(=O)c1cccc(O)c1O)c1cccc(O)c1O`, the result (with Influenza A virus H3N2; in the data set with Influenza A virus; in data set [1]; in the data set with Coxsackievirus B4; with Reovirus sp.; in the data set on Human respirovirus 3) was inactive. The result (with Feline coronavirus; in data set [2]; in the data set with Sindbis virus; with Punta Toro virus; in the data set on Felid alphaherpesvirus 1; in the data set with Vaccinia virus) was inactive. Further, the result with Chikungunya virus was inactive. Further, the half-maximal cytotoxic concentration (CC50) in data set [3] is 4.8 µM. For the same compound, the results for the EC50 (in [4]; in data set [5]; in the data set with Hepatitis C virus) were more than 2 µM, more than 2 µM and 2 µM, respectively. Also, it took 108 µM to reach half-maximal cytotoxicity in data set [6] (CC50 at 72 h). Also, the EC90 in the data set with Hepatitis C virus is 4.8 µM.

As to `O=C(NCCCCCCCCNC(=O)c1cc(O)c(O)c(O)c1)c1cc(O)c(O)c(O)c1`, the result (in the data set on Influenza A virus H3N2; in the data set with Influenza A virus; in data set [1]; in the data set on Coxsackievirus B4; in the data set with Reovirus sp.; in the data set on Human respirovirus 3) was inactive. Moreover, the result (with Feline coronavirus; in [2]; in the data set on Sindbis virus; with Punta Toro virus; in the data set with Felid alphaherpesvirus 1; in the data set with Vaccinia virus) was inactive. Besides, the outcome in the data set on Chikungunya virus was inactive. Moreover, in data set [3], the CC50 stood at 51 µM. The EC50 is more than 10 µM in [5] and 23 µM with Hepatitis C virus. This compound also showed a CC50 at 72 h in [6] of more than 50 µM. Besides, in the data set on Hepatitis C virus, the 90% effect concentration (EC90) is more than 50 µM.

As to `O=C(NCCNC(=O)c1ccccc1O)c1ccccc1O`, the result (in the data set with Influenza A virus H3N2; with Influenza A virus; in [1]; in the data set with Coxsackievirus B4; in the data set on Reovirus sp.; with Human respirovirus 3) was inactive. The result (in the data set with Feline coronavirus; in [2]; in the data set on Sindbis virus; with Punta Toro virus; in the data set with Felid alphaherpesvirus 1; in the data set with Vaccinia virus) was inactive. Moreover, in the data set with Chikungunya virus, the outcome was inactive. In addition, the CC50 in [3] is 25 µM. The 50% effective concentration (EC50) in [4] and in data set [5] was more than 10 µM in each case.

For `COc1ccc(C(=O)NCCCCCCCCCCCCNC(=O)c2ccc(OC)c(OC)c2OC)c(OC)c1OC`, in [6], half-maximal cytotoxicity (CC50 at 72 h) was put at 5.4 µM. For the same compound, the 50% effective concentration (EC50) with Hepatitis C virus was more than 3.5 µM.

`O=C(NCCNC(=O)c1cccc(O)c1O)c1cccc(O)c1O`: the result (with Influenza A virus H3N2; with Influenza A virus; in [1]; in the data set with Coxsackievirus B4; in the data set on Reovirus sp.; with Human respirovirus 3) was inactive. The outcome (with Feline coronavirus; in data set [2]; with Sindbis virus; in the data set with Punta Toro virus; in the data set on Felid alphaherpesvirus 1; in the data set on Vaccinia virus) was inactive. Moreover, the outcome in the data set with Chikungunya virus was inactive. In addition, the 50% cytotoxic concentration (CC50) in data set [3] came to 19 µM. Further, the EC50 in data set [4] and in [5] was more than 10 µM in each case.

Regarding `O=C(NCCN(CCNC(=O)c1cc(O)c(O)c(O)c1)CCNC(=O)c1cc(O)c(O)c(O)c1)c1cc(O)c(O)c(O)c1`, the result (in the data set on Influenza A virus H3N2; in the data set on Influenza A virus; in data set [1]; in the data set on Coxsackievirus B4; with Reovirus sp.; with Human respirovirus 3) was inactive. Also, the result (in the data set with Feline coronavirus; in data set [2]; in the data set with Sindbis virus; with Punta Toro virus; in the data set on Felid alphaherpesvirus 1; in the data set on Vaccinia virus) was inactive. Besides, the result with Chikungunya virus was inactive. Also, the half-maximal cytotoxic concentration (CC50) in data set [3] was 54 µM. Moreover, the EC50 in data set [5] was 10 µM; with Hepatitis C virus it was more than 2.9 µM. In [6], this compound had a CC50 at 72 h of more than 2.9 µM. Besides, in the data set on Hepatitis C virus, the EC90 was more than 2.9 µM.

Compound `CCC[C@H](NC(=O)[C@@H]1[C@H]2CCC[C@H]2CN1C(=O)[C@@H](NC(=O)[C@@H](NC(=O)c1cnccn1)C1CCCCC1)C(C)(C)C)C(=O)C(=O)NC1CC1` [TELAPREVIR] yielded a cytotoxic concentration (CC50) at 72 h in data set [6] of 47 µM. Further, the EC50 with Hepatitis C virus is 2.8 µM.

On to `O=C(NCCCCNC(=O)c1ccccc1O)c1ccccc1O`, for which the outcome (in the data set on Influenza A virus H3N2; in the data set with Influenza A virus; in [1]; in the data set with Coxsackievirus B4; with Reovirus sp.; in the data set with Human respirovirus 3) was inactive. Moreover, the outcome (in the data set with Feline coronavirus; in data set [2]; with Sindbis virus; with Punta Toro virus; in the data set with Felid alphaherpesvirus 1; in the data set on Vaccinia virus) was inactive. For the same compound, in the data set on Chikungunya virus, the outcome was inactive. The cytotoxic concentration (CC50) in [3] was determined as 35 µM. Besides, the EC50 in data set [5] was more than 10 µM; with Hepatitis C virus, 11 µM. In data set [6], this compound displayed a CC50 at 72 h of more than 49 µM.

Consider `O=C(NCCN(CCNC(=O)c1cc(O)c(O)c(O)c1)C(=O)c1cc(O)c(O)c(O)c1)c1cc(O)c(O)c(O)c1`, for which the outcome (with Influenza A virus H3N2; in the data set with Influenza A virus; in data set [1]; with Coxsackievirus B4; with Reovirus sp.; in the data set with Human respirovirus 3) was inactive. For the same compound, the outcome (with Feline coronavirus; in data set [2]; with Sindbis virus; in the data set with Punta Toro virus; in the data set with Felid alphaherpesvirus 1; with Vaccinia virus) was inactive. Besides, in the data set on Chikungunya virus, the result was inactive. Moreover, the CC50 in data set [3] was determined as 34 µM. For the same compound, the EC50 in data set [4] and in data set [5] was more than 10 µM throughout.
